Among the data in ChEMBL document CHEMBL3507680, “University of Dundee, Gates Library screen for HepG2 cell viability” are cytotoxicity values, retold here.

A short description of the data set: Human HepG2 cell viability assay in 384 well format. To be noted: HepG2 cells, read-out: Inhibition. Set-up: dose 125 nL, time 70.5 hour; cytotoxicity at 70.5 h: concentration not given beside the values. In kind it is toxicity, cell-based.
As to `CC(C)n1cc(CN2CCCN(C(=O)c3ccnn3C)CC2)cn1`, the cytotoxicity at 70.5 h is -2.89%.

As for `OC(CNCCn1cccn1)COc1ccc(F)cc1` (configuration not stated), the cytotoxicity at 70.5 h is 5.18%.

As for `O=C(CNC(=O)c1cnccn1)Nc1ncc[nH]1`, the cytotoxicity at 70.5 h was -33.4%.

Consider `O=C(Cc1cccs1)N1C[C@@H]2CN(Cc3ccoc3)CCO[C@@H]2C1`, for which the cytotoxicity at 70.5 h was -15.2%.

With `CN1CCCN(C(=O)c2nc3c(n2C)CCN(c2ncccn2)C3)CC1`, the cytotoxicity at 70.5 h was 22.6%.

`CC(=O)NCCC(=O)Nc1sccc1C(=O)C(C)(C)C`: the cytotoxicity at 70.5 h amounted to 2.44%.

For `CC(NCc1ccccc1Cl)c1ccc2[nH]c(=O)[nH]c2c1` (configuration not stated), the cytotoxicity at 70.5 h stood at 7.48%.

For the compound `Cc1nn(C)c2nc(N(C)CCN(C)C3CCCC3)sc12`, the cytotoxicity at 70.5 h was determined as 5.16%.

`CC1CCN(C(=O)c2occc2COc2cccc(C#N)c2)CC1`: the cytotoxicity at 70.5 h worked out at 8.42%.

On to `O=C(NC[C@H]1OC[C@@H](NCc2ccccn2)[C@@H]1O)c1ccc(F)cc1`, for which the cytotoxicity at 70.5 h came out at 2.33%.

In the case of `COCCN1CCC2(CC1)CC(c1ccccc1)C(=O)N2C` (configuration not stated), the cytotoxicity at 70.5 h is -7.45%.

As to `Cc1cc(C(=O)N(C)C)nc(C2(C)CCCN2c2ccccc2)n1` (configuration not stated), the cytotoxicity at 70.5 h is -2.68%.

Take `COCCN1CCCC12CCN(Cc1cccnc1OC)CC2`: the cytotoxicity at 70.5 h was determined as 31.2%.

Take `O=C(Cn1cc(-c2ccccc2)cn1)N1CCNC1=O`: the cytotoxicity at 70.5 h is -21.6%.

Consider `O=C(Nc1cn[nH]c1)c1ccncc1`, for which the cytotoxicity at 70.5 h stood at 4.52%.

For `CN1C[C@@H]2CN(C(=O)NCc3cccc(F)c3)CCC[C@]2(C(=O)O)C1`, the cytotoxicity at 70.5 h was found to be 8.66%.

Take `Cc1nsc(N2CCCN(CC(=O)N(C)C3CC3)CC2)n1`: the cytotoxicity at 70.5 h was -4.31%.

Take `Cc1cc(CN(C)C(=O)c2ccc(F)c(C(F)(F)F)c2)no1`: the cytotoxicity at 70.5 h was -1.4%.

On to `O=C(Nc1cccnc1)c1nn(C2CCS(=O)(=O)C2)c2c1CCCC2` (configuration not stated), for which the cytotoxicity at 70.5 h is -23.7%.

On to `CC(=O)N1CC2(CCN(Cc3ccc(Cl)cc3)CC2)Cc2ccccc21`, for which the cytotoxicity at 70.5 h was found to be 9.92%.

For `Cc1cc(C(=O)N[C@H]2CC[C@@]3(CCC(=O)N3CC3CC3)CC2)no1`, the cytotoxicity at 70.5 h is -15.5%.

Consider `CCOc1ccccc1CCC(=O)Nc1c(C)nn(C)c1C`, for which the cytotoxicity at 70.5 h was 14.5%.

In the case of `CN(CC1(C)COC1)C(=O)c1cc(-c2ccn(C)n2)nc2ccccc12`, the cytotoxicity at 70.5 h amounted to 14.1%.

As to `O=C(CN1CCCC(O)C1)NC(=O)NCc1cccs1` (configuration not stated), the cytotoxicity at 70.5 h was -8.04%.

Turning to `CN1C[C@@H]2COC[C@]2(C(=O)NCc2cccs2)C1`, the cytotoxicity at 70.5 h was determined as 13.4%.

As to `O=C(NCC1(O)CCSCC1)c1nccc2ccccc12`, the cytotoxicity at 70.5 h was found to be 13.5%.

For the compound `O=c1cc(-c2ccncc2)nc(-c2ccc(CN3CC[C@@H](O)C3)cc2)[nH]1`, the cytotoxicity at 70.5 h is -11.3%.

Consider `Cn1cc(C(=O)N[C@H]2CN(S(C)(=O)=O)[C@@H]3CCCO[C@H]23)cn1`, for which the cytotoxicity at 70.5 h was -9.45%.

In the case of `CCCC(=O)N1CCC(c2cc3cccnc3c(O)n2)CC1`, the cytotoxicity at 70.5 h is -5.85%.

Turning to `O=c1n(CCSCc2ccccc2Br)nc2ccccn12`, the cytotoxicity at 70.5 h was determined as 4.82%.

With `O=c1c(Cc2ccccc2)c(O)ccn1CCc1ccccc1`, the cytotoxicity at 70.5 h was -3.9%.

`CC(C)CCn1c(=O)n(CCn2cccc2)c2cc(C(=O)O)cnc21`: the cytotoxicity at 70.5 h was -7.02%.

`COc1cccc(CN2CCCCC2Cn2nc(C)nc2C)c1` (configuration not stated): the cytotoxicity at 70.5 h was -9.6%.

On to `Cc1ccc(NC(=O)C2CCc3ccccc3N2)cc1` (configuration not stated), for which the cytotoxicity at 70.5 h turned out to be 15.2%.

For `CN(C)CCN1CC[C@H]2[C@@H]1CCN2Cc1ccc2c(c1)OCO2`, the cytotoxicity at 70.5 h was -4.2%.

For `COc1nn(C)c2c1CCCN(C(=O)c1ccc(C)c(F)c1)C2`, the cytotoxicity at 70.5 h was -101%.

As for `Cc1ncsc1CN1C[C@@H](OCC(=O)N(C)C)[C@H]2OCCC[C@H]21`, the cytotoxicity at 70.5 h was -11.1%.

`Cc1ccc(F)cc1-n1c(CN(C)S(C)(=O)=O)n[nH]c1=O`: the cytotoxicity at 70.5 h was -8.73%.

As for `COc1c(C2CCCN2Cc2nc(C3CC3)no2)c(C)nn1C` (configuration not stated), the cytotoxicity at 70.5 h is 9.69%.

With `Cc1ccc(-n2cc(C(=O)N3CCn4c(C)nnc4C3)nn2)cc1`, the cytotoxicity at 70.5 h came out at 26.8%.

For `O=C(NC1CC1)[C@H]1COC[C@H]2CN(c3ncc(F)cn3)C[C@H]21`, the cytotoxicity at 70.5 h is -8.95%.

For `CC(c1cccc(S(N)(=O)=O)c1)N(C)CCc1ccccc1` (configuration not stated), the cytotoxicity at 70.5 h stood at 11.5%.

For the compound `COCC1c2nnn(CC3CC3)c2CCN1C(=O)CS(C)(=O)=O` (configuration not stated), the cytotoxicity at 70.5 h is -12.6%.

`CC(=O)c1nn(-c2ccccc2)c(C)c1C(C)=O`: the cytotoxicity at 70.5 h was -8.03%.

For the compound `CCc1nnc2n1CCN(C(C(=O)NC1CC1)c1ccc(F)cc1)C2` (configuration not stated), the cytotoxicity at 70.5 h was -15.2%.

As to `CC(C1CCN(Cc2cnn(C)c2C2CC2)CC1)N1CCN(C)CC1` (configuration not stated), the cytotoxicity at 70.5 h was -3.33%.

As for `CC(C)CSCCN1CCN(S(C)(=O)=O)CC1`, the cytotoxicity at 70.5 h worked out at 0.763%.

In the case of `CC(C)(C)C(O)CN1CCN(CC(=O)NCC(F)(F)F)CC1` (configuration not stated), the cytotoxicity at 70.5 h was 13.1%.

In the case of `Cc1ccccc1CNC(=O)CN1CCN(Cc2nccn2C)CC1`, the cytotoxicity at 70.5 h was -20.5%.

Consider `CNC(=O)c1cc2c(nc1N(C)C)CCN(c1ncc(F)cn1)CC2`, for which the cytotoxicity at 70.5 h is -13.5%.

As to `CCN(Cc1noc(C)n1)C(=O)CCn1c(C)cc2ccccc21`, the cytotoxicity at 70.5 h is -6.29%.

As for `OCc1cc2ccccc2nc1NCC1CC1`, the cytotoxicity at 70.5 h is -4.89%.

With `COCc1cc(N(C)CCc2c(C)n[nH]c2C)ncn1`, the cytotoxicity at 70.5 h worked out at 5.69%.

Take `Cn1[nH]c(Br)c2/c(=N\CCN)ncnc1-2`: the cytotoxicity at 70.5 h was -7.01%.

For the compound `CCc1ccccc1CN1CCC(N2CCCC2=O)CC1`, the cytotoxicity at 70.5 h is -8.77%.

With `COc1ccc(CN2CCCC2)cc1Oc1cccc(C#N)n1`, the cytotoxicity at 70.5 h was -2.11%.

Regarding `Cc1nccn1-c1cccc(C2CCCN2S(=O)(=O)c2cn(C)cn2)n1` (configuration not stated), the cytotoxicity at 70.5 h came to 31.6%.

As for `CCN(CC)C(=O)Cn1ccc2cc(NC(=O)NC3CC3)ccc21`, the cytotoxicity at 70.5 h was -3.42%.

Take `COCC(C)(C#N)NC(=O)COc1ccccc1` (configuration not stated): the cytotoxicity at 70.5 h was -0.947%.

On to `CCn1ncc2[nH]c(-c3ccc(OC)c(COC)c3)nc21`, for which the cytotoxicity at 70.5 h was -6.61%.

In the case of `Cc1ccc(NC2CCN(C(=O)Cc3cccs3)CC2)nn1`, the cytotoxicity at 70.5 h stood at 2.71%.

With `c1ccc(C2CCCN(c3ncnc4c3CCNC4)CC2)cc1` (configuration not stated), the cytotoxicity at 70.5 h stood at 2.81%.

For the compound `O=C(CCc1ccncc1)N1CCc2cc(Cl)cc(Cl)c2C1`, the cytotoxicity at 70.5 h was found to be 17.4%.

For the compound `COCc1noc(-c2cc(Cl)c3c(c2)OCO3)n1`, the cytotoxicity at 70.5 h was -19.3%.

For `CN1CCN(Cc2ccco2)Cc2cccnc21`, the cytotoxicity at 70.5 h was 0%.

On to `Cc1cnn(CC2CCCCN2C(=O)c2cc(Cl)c[nH]2)c1` (configuration not stated), for which the cytotoxicity at 70.5 h is 7.01%.

Take `CN(C)CC(=O)N1CCCC1c1ccccn1` (configuration not stated): the cytotoxicity at 70.5 h was -3.81%.

As to `CCc1ccsc1C(=O)N1CCCN(Cc2cnn(CC)c2)CC1`, the cytotoxicity at 70.5 h was 7.56%.

In the case of `CCc1nnc(CNC2CCCN(Cc3noc(C4CC4)n3)C2)o1` (configuration not stated), the cytotoxicity at 70.5 h was -9.18%.

As to `CCc1nc(CN2CCCN(Cc3cnn(C)c3)CC2)no1`, the cytotoxicity at 70.5 h stood at 0.0385%.

`COc1ccccc1[C@@H]1CN(CC(=O)N2CCCCC2)C[C@H]1C(=O)O`: the cytotoxicity at 70.5 h is -7.8%.

With `CNC(=O)c1cccc(CNC(C)c2cc(Cl)ccc2OC)c1` (configuration not stated), the cytotoxicity at 70.5 h was -2.03%.
